Values of other authors, collected in PubChem BioAssay AID1259409 (Chemical Carcinogenesis Research Information System (CCRIS), 2018).

Tested on: rodent chemically induced tumor inhibition, incidence and multiplicity
Assay: CCRIS tumor inhibitor studies
Conditions: 937-40-6, Dose [Inhibitor]: 0, Route [Inhibitor]: ORAL, Species: RAT, Promoter: NONE USED

## O=c1oc2c(O)c(O)cc3c(=O)oc4c(O)c(O)cc1c4c23
Carcinogen: N-NITROSOBENZYLMETHYLAMINE, 1.2 UMOL/G IN DIET FOR DURATION OF STUDY BEGINNING 2 WK PRIOR TO CARCINOGEN TREATMENT (STUDY DURATION: 20 WK), Strain/Sex: F344/MALE, Target Tissue: Type of Lesion: ESOPHAGUS: TUMORS, Dose [Carcinogen]: 0.5 MG/KG IN 0.1 ML OF DMSO 1/WK FOR 18 WK
  tumour outcome (control, treated, inhibition, significance): 15/15 (100%), 14/15 (93%), 7%, not significant
Carcinogen: N-NITROSOBENZYLMETHYLAMINE, 1.2 UMOL/G IN DIET FOR DURATION OF STUDY BEGINNING 2 WK PRIOR TO CARCINOGEN TREATMENT (STUDY DURATION: 20 WK), Strain/Sex: F344/MALE, Target Tissue: Type of Lesion: ESOPHAGUS: TUMORS, Dose [Carcinogen]: 1.25 MG/KG IN 0.1 ML OF DMSO 1/WK FOR 18 WK
  tumour outcome (control, treated, inhibition, significance): 15/15 (100%), 15/15 (100%), 0%, not significant
Carcinogen: N-NITROSOBENZYLMETHYLAMINE, 1.2 UMOL/G IN DIET FOR DURATION OF STUDY BEGINNING 2 WK PRIOR TO CARCINOGEN TREATMENT (STUDY DURATION: 27 WK), Strain/Sex: F344/MALE, Target Tissue: Type of Lesion: ESOPHAGUS: TUMORS, Dose [Carcinogen]: 0.5 MG/KG IN 0.1 ML OF DMSO 1/WK FOR 18 WK
  tumour outcome (control, treated, inhibition, significance): 15/15 (100%), 15/15 (100%), 0%, not significant
Carcinogen: N-NITROSOBENZYLMETHYLAMINE, 1.2 UMOL/G IN DIET FOR DURATION OF STUDY BEGINNING 2 WK PRIOR TO CARCINOGEN TREATMENT (STUDY DURATION: 27 WK), Strain/Sex: F344/MALE, Target Tissue: Type of Lesion: ESOPHAGUS: TUMORS, Dose [Carcinogen]: 1.25 MG/KG IN 0.1 ML OF DMSO 1/WK FOR 18 WK
  tumour outcome (control, treated, inhibition, significance): 15/15 (100%), 15/15 (100%), 0%, not significant
Carcinogen: N-NITROSOBENZYLMETHYLAMINE, 4 G/KG IN DIET BEGINNING 2 WK PRIOR TO FIRST CARCINOGEN DOSE (STUDY DURATION: 20 WK), Strain/Sex: F-344/MALE, Target Tissue: Type of Lesion: ESOPHAGUS: TUMOR, Dose [Carcinogen]: 0.5, 1.25 MG/KG 1/WK FOR 18 WK
  tumour outcome (control, treated, inhibition, significance): 15/15 (100%), 12/15 (80%), 20%, not calculated (low dose carcinogen); 15/15 (100
Carcinogen: N-NITROSOBENZYLMETHYLAMINE, 4 G/KG IN DIET BEGINNING 2 WK PRIOR TO FIRST CARCINOGEN DOSE (STUDY DURATION: 27 WK), Strain/Sex: F-344/MALE, Target Tissue: Type of Lesion: ESOPHAGUS: TUMOR, Dose [Carcinogen]: 0.5, 1.25 MG/KG 1/WK FOR 18 WK
  tumour outcome (control, treated, inhibition, significance): 15/15 (100%), 15/15 (100%), 0%, not calculated (low dose carcinogen); 15/15 (100
Carcinogen: N-NITROSOBENZYLMETHYLAMINE, 12 UMOL/G IN DIET FOR DURATION OF STUDY BEGINNING 2 WK PRIOR TO CARCINOGEN TREATMENT (STUDY DURATION: 20 WK), Strain/Sex: F344/MALE, Target Tissue: Type of Lesion: ESOPHAGUS: TUMORS, Dose [Carcinogen]: 0.5 MG/KG IN 0.1 ML OF DMSO 1/WK FOR 18 WK
  tumour outcome (control, treated, inhibition, significance): 15/15 (100%), 12/15 (80%), 20%, not significant
Carcinogen: N-NITROSOBENZYLMETHYLAMINE, 12 UMOL/G IN DIET FOR DURATION OF STUDY BEGINNING 2 WK PRIOR TO CARCINOGEN TREATMENT (STUDY DURATION: 20 WK), Strain/Sex: F344/MALE, Target Tissue: Type of Lesion: ESOPHAGUS: TUMORS, Dose [Carcinogen]: 1.25 MG/KG IN 0.1 ML OF DMSO 1/WK FOR 18 WK
  tumour outcome (control, treated, inhibition, significance): 15/15 (100%), 15/15 (100%), 0%, not significant
Carcinogen: N-NITROSOBENZYLMETHYLAMINE, 12 UMOL/G IN DIET FOR DURATION OF STUDY BEGINNING 2 WK PRIOR TO CARCINOGEN TREATMENT (STUDY DURATION: 27 WK), Strain/Sex: F344/MALE, Target Tissue: Type of Lesion: ESOPHAGUS: TUMORS, Dose [Carcinogen]: 0.5 MG/KG IN 0.1 ML OF DMSO 1/WK FOR 18 WK
  tumour outcome (control, treated, inhibition, significance): 15/15 (100%), 15/15 (100%), 0%, not significant
Carcinogen: N-NITROSOBENZYLMETHYLAMINE, 12 UMOL/G IN DIET FOR DURATION OF STUDY BEGINNING 2 WK PRIOR TO CARCINOGEN TREATMENT (STUDY DURATION: 27 WK), Strain/Sex: F344/MALE, Target Tissue: Type of Lesion: ESOPHAGUS: TUMORS, Dose [Carcinogen]: 1.25 MG/KG IN 0.1 ML OF DMSO 1/WK FOR 18 WK
  tumour outcome (control, treated, inhibition, significance): 15/15 (100%), 15/15 (100%), 0%, not significant
Carcinogen: N-NITROSOMETHYLBENZYLAMINE, 400 PPM IN DIET FOR DURATION OF STUDY BEGINNING 1 WK POST CARCINOGEN TREATMENT (STUDY DURATION: 25 WK), Strain/Sex: F344/MALE, Target Tissue: Type of Lesion: ESOPHAGUS: TUMOR, Dose [Carcinogen]: 1 MG/KG 3/WK FOR 5 WK
  tumour outcome (control, treated, inhibition, significance): 15/15 (100%), 14/15 (93%), 7%, not significant
Carcinogen: N-NITROSOMETHYLBENZYLAMINE, 4000 PPM IN DIET FOR DURATION OF STUDY BEGINNING 1 WK POST CARCINOGEN TREATMENT (STUDY DURATION: 25 WK), Strain/Sex: F344/MALE, Target Tissue: Type of Lesion: ESOPHAGUS: TUMOR, Dose [Carcinogen]: 1 MG/KG 3/WK FOR 5 WK
  tumour outcome (control, treated, inhibition, significance): 15/15 (100%), 10/15 (67%), 33%, p<0.05
